Patent EP0514268A1, “Substituted amino acid azetidinyl pyridone derivatives, their preparation and use as medicines” (LABORATORIOS DEL DR. ESTEVE, S.A., priority 1991, dated 1992)
Where two headings read alike, the source gives them in different places.

Assays:
[1] = system: Staph. aureus ATCC 25178; test: Antimicrobial activity, agar dilution; assay type: cell-based, Staphylococcus aureus; details: Agar Dextrose dilutions, 37°C, 20 heures
Text: (§1) L'activité pharmacologique antimicrobienne de ces composés a été étudiée selon les références exposées ci-dessous.
(§2) Activité pharmacologique antimicrobienne : G.L. Daquet et Y.A. Chabbect, techniques en bactériologie, Vol. 3, Flammarion Médecine-Sciences, Paris 1972, et W.B. Hugo et A.D. Rusell, Pharmaceutical Microbiology, Blackwell Scientific Publications, London, 1977.
(§3) Milieu de culture et solvant : Agar d'antibiotiques n° 1 (Oxoid CM 327) Bouillon de triptone-soja (Oxoid CM 129) Solution Physiologique Ringer 1/4 (Oxoid BR 52) Agar Dextrose (BBL 11165)
(§4) Microorganismes : "Bacillus subtilis" ATCC 6633 "Citrobacter freundii" ATCC 112606 "Enterobacter aerogenes" ATCC 15038 "Enterobacter cloacae" ATCC 23355 "Bacillus cereus" ATCC 1178 "Escherichia coli" ATCC 10799 "Escherichia coli" ATCC 23559 "Klebsiella pneumoniae" ATCC 10031 "Proteus vulgaris" ATCC 8427 "Morg. morganii" ATCC 8019 "Pseudomonas aeruginosa" ATCC 9721 "Pseudomonas aeruginosa" ATCC 10145 "Salmonella typhimurium" ATCC 14028 "Salmonella typhimurium" ATCC 6539 "Serratia marcescens" ATCC 13880 "Shigella flexnerii" ATCC 12022 "Staphylococcusepidermis" ATCC 155-1 "Staphylococcus aureus" ATCC 25178 "Streptococcus faecalis" ATCC 10541.
(§5) Chacun des microorganismes est ensemencé par strie dans des tubes d'Agar d'antibiotiques n° 1, et mis en incubation pendant 20 heures à 37°C. Ensuite, on prend une anse de culture, on ensemence dans un bouillon de Triptone-soja et on incube pendant 20 heures à 37°C. On dilue à 1/4 la culture obtenue avec une solution physiologique Ringer, de façon à obtenir une suspension normalisée de […] pour chaque organisme.
(§6) A partir d'une solution de 100 µg/ml, chaque produit est dilué dans l'Agar Dextrose (préalablement fondu et maintenu à 50°C) par dilutions successives de façon à obtenir les concentrations suivantes : 64-32-16-8-4-2-1-0,5-0,25-0,125 µg de dérivé/ml du milieu.
(§7) Postérieurement, chaque concentration de chaque produit est répartie dans des boîtes de Petri de 10 cm de diamètre, à raison de 10 ml de milieu par boîte et autant de boîtes que de microorganismes à tester.
(§8) Une fois le milieu refroidi, les boîtes sont ensemencées avec les inoculations à raison de 0,4 ml d'inoculation par boîte. On les étend avec une anse de Driglasky et on recueille le surnageant. Les boîtes ensemencées sont incubées à 37°C pendant 20 heures.
(§9) Les résultats obtenus sont décrits dans les tableaux suivants. Les concentrations sont données en µg/ml.

[2] = system: Serr. marcescens ATCC 13880; test: Antimicrobial activity, agar dilution; assay type: cell-based, Serratia marcescens; details: Agar Dextrose dilutions, 37°C, 20 heures
Text: as §1, §2, §3, §4, §5, §6, §7, §8, §9

[3] = system: Ent. aerogenes ATCC 15038; test: Antimicrobial activity, agar dilution; assay type: cell-based, Enterobacter aerogenes; details: Klebsiella aerogenes, ATCC15038, 20 h, Agar Dextrose dilutions, 37°C, 20 heures, read-out: Activité pharmacologique antimicrobienne (concentrations)
Text: as §1, §2, §3, §4, §5, §6, §7, §8, §9

[4] = Solubility in water and at pH 7.4; assay type: physicochemical
Text: Un grand nombre des composés de l'invention manifestent une augmentation de la solubilité dans l'eau ainsi que de la solubilité à pH 7,4 lorsqu'on compare avec les composés de référence. L'augmentation de solubilité au pH physiologique peut favoriser l'absorption du produit et la solubilité élevée dans l'eau permet l'administration du composé par voie parentérale.

[5] = system: Kleb. pneumoniae ATCC 10031; test: Antimicrobial activity, agar dilution; assay type: cell-based, Klebsiella pneumoniae; details: Agar Dextrose dilutions, 37°C, 20 heures
Text: as §1, §2, §3, §4, §5, §6, §7, §8, §9

[6] = system: Ent. cloacae ATCC 23355; test: Antimicrobial activity, agar dilution; assay type: cell-based, Enterobacter cloacae; details: Agar Dextrose dilutions, 37°C, 20 heures
Text: as §1, §2, §3, §4, §5, §6, §7, §8, §9

[7] = system: Strep. faecalis ATCC 10541; test: Antimicrobial activity, agar dilution; assay type: cell-based, Streptococcus faecalis; details: Agar Dextrose dilutions, 37°C, 20 heures
Text: as §1, §2, §3, §4, §5, §6, §7, §8, §9

[8] = system: Citr. freundii ATCC 11606; test: Antimicrobial activity, agar dilution; assay type: cell-based, Citrobacter freundii; details: Agar Dextrose dilutions, 37°C, 20 heures
Text: as §1, §2, §3, §4, §5, §6, §7, §8, §9

[9] = system: Staph. epidermidis ATCC 155-1; test: Antimicrobial activity, agar dilution; assay type: cell-based; details: Agar Dextrose dilutions, 37°C, 20 heures
Text: as §1, §2, §3, §4, §5, §6, §7, §8, §9

[10] = system: Proteus vulgaris ATCC 8427; test: Antimicrobial activity, agar dilution; assay type: cell-based; details: Agar Dextrose dilutions, 37°C, 20 heures
Text: as §1, §2, §3, §4, §5, §6, §7, §8, §9

[11] = system: Bacillus subtilis ATCC 6633; test: Antimicrobial activity, agar dilution; assay type: cell-based; details: ATCC6633, 20 h, Agar Dextrose dilutions, 37°C, 20 heures, read-out: Activité pharmacologique antimicrobienne (concentrations)
Text: as §1, §2, §3, §4, §5, §6, §7, §8, §9

[12] = system: Morg. morganii ATCC 8019; test: Antimicrobial activity, agar dilution; assay type: cell-based; details: Agar Dextrose dilutions, 37°C, 20 heures
Text: as §1, §2, §3, §4, §5, §6, §7, §8, §9

[13] = system: Escherichia coli ATCC 10799; test: Antimicrobial activity, agar dilution; assay type: cell-based; details: Agar Dextrose dilutions, 37°C, 20 heures
Text: as §1, §2, §3, §4, §5, §6, §7, §8, §9

[14] = system: Bacillus cereus ATCC 11778; test: Antimicrobial activity, agar dilution; assay type: cell-based; details: Agar Dextrose dilutions, 37°C, 20 heures
Text: as §1, §2, §3, §4, §5, §6, §7, §8, §9

[15] = system: Shigella flexnerii ATCC 12022; test: Antimicrobial activity, agar dilution; assay type: cell-based; details: ATCC12022, 20 h, Agar Dextrose dilutions, 37°C, 20 heures, read-out: Activité pharmacologique antimicrobienne (concentrations)
Text: as §1, §2, §3, §4, §5, §6, §7, §8, §9

[16] = system: Ps. aeruginosa ATCC 9721; test: Antimicrobial activity, agar dilution; assay type: cell-based; details: Pseudomonas aeruginosa, ATCC9721, 20 h, Agar Dextrose dilutions, 37°C, 20 heures, read-out: Activité pharmacologique antimicrobienne (concentrations)
Text: as §1, §2, §3, §4, §5, §6, §7, §8, §9

[17] = system: Ps. aeruginosa ATCC 10145; test: Antimicrobial activity, agar dilution; assay type: cell-based; details: Pseudomonas aeruginosa, ATCC10145, 20 h, Agar Dextrose dilutions, 37°C, 20 heures, read-out: Activité pharmacologique antimicrobienne (concentrations)
Text: as §1, §2, §3, §4, §5, §6, §7, §8, §9

[18] = system: Sal. typhi ATCC 6539; test: Antimicrobial activity, agar dilution; assay type: cell-based; details: Salmonella enterica, 20 h, read-out: Activité pharmacologique antimicrobienne (concentrations)
Text: as §1, §2, §3, §4, §5, §6, §7, §8, §9

[19] = system: Escherichia coli ATCC 23559; test: Antimicrobial activity, agar dilution; assay type: cell-based; details: Agar Dextrose dilutions, 37°C, 20 heures
Text: as §1, §2, §3, §4, §5, §6, §7, §8, §9

[20] = system: Sal. typhimurium ATCC 14028; test: Antimicrobial activity, agar dilution; assay type: cell-based, Salmonella typhimurium; details: Agar Dextrose dilutions, 37°C, 20 heures
Text: as §1, §2, §3, §4, §5, §6, §7, §8, §9

## C[C@H](N)C(=O)N[C@@H]1CN(c2nc3c(cc2F)c(=O)c(C(=O)O)cn3C2CC2)[C@H]1C [Exemple 4aA, chlorhydratede l'acide 7-[(2S,3R)-2-méthyl-3-Ala-amino-1-azétidinyl]-1-cyclopropyl-6-fluoro-1,4-dihydro-4-oxo-1,8-naphtyridine-3-carboxylique]
[1]
  Activité pharmacologique antimicrobienne (concentrations): 0,25 µg/ml
[1]; Staphylococcus aureus, ATCC25178, 20 h, read-out: Activité pharmacologique antimicrobienne (concentrations)
  MIC: 0.5 µg/mL
[2]
  Activité pharmacologique antimicrobienne (concentrations): 1 µg/ml
[2]; listed as 4aa
  Activité pharmacologique antimicrobienne (concentrations): 4 µg/ml
[3]
  MIC: 0.5 µg/mL
[4]; pH 7,4, read-out: Solubilité pH 7,4
  solubility: > 500 µg/mL
[4]; water, read-out: Solubilité dans l'eau
  solubility: > 500 µg/mL
[5]
  Activité pharmacologique antimicrobienne (concentrations): 0,06 µg/ml
[5]; listed as 4aa
  Activité pharmacologique antimicrobienne (concentrations): 0,5 µg/ml
[6]
  Activité pharmacologique antimicrobienne (concentrations): 0,12 µg/ml
[6]; listed as 4aa
  Activité pharmacologique antimicrobienne (concentrations): 0,25 µg/ml
[7]
  Activité pharmacologique antimicrobienne (concentrations): 8 µg/ml
[7]; listed as 4aa
  Activité pharmacologique antimicrobienne (concentrations): 1 µg/ml
[8]
  Activité pharmacologique antimicrobienne (concentrations): 0,5 µg/ml
[8]; Citrobacter freundii, ATCC11606, 20 h, read-out: Activité pharmacologique antimicrobienne (concentrations)
  MIC: 0.25 µg/mL
[9]
  Activité pharmacologique antimicrobienne (concentrations): 1 µg/ml
[9]; Staphylococcus epidermidis, ATCC155, 20 h, read-out: Activité pharmacologique antimicrobienne (concentrations)
  MIC: 0.5 µg/mL
[10]
  Activité pharmacologique antimicrobienne (concentrations): 2 µg/ml
[10]; Proteus vulgaris, ATCC8427, 20 h, read-out: Activité pharmacologique antimicrobienne (concentrations)
  MIC: 1 µg/mL
[11]
  MIC: 0.12 µg/mL
[12]
  Activité pharmacologique antimicrobienne (concentrations): 0,5 µg/ml
[12]; listed as 4aa
  Activité pharmacologique antimicrobienne (concentrations): 2 µg/ml
[13]
  Activité pharmacologique antimicrobienne (concentrations): 1 µg/ml
[13]; Escherichia coli, ATCC10799, 20 h, read-out: Activité pharmacologique antimicrobienne (concentrations)
  MIC: 0.5 µg/mL
[14]
  Activité pharmacologique antimicrobienne (concentrations): 0,5 µg/ml
[14]; Bacillus cereus, ATCC11778, 20 h, read-out: Activité pharmacologique antimicrobienne (concentrations)
  MIC: 1 µg/mL
[15]
  MIC: 0.12 µg/mL
[16]
  MIC: 4 µg/mL
[17]
  MIC: 8 µg/mL
[18]
  MIC: 0.5 µg/mL
[19]
  Activité pharmacologique antimicrobienne (concentrations): 0,12 µg/ml
[19]; listed as 4aa
  Activité pharmacologique antimicrobienne (concentrations): 0,25 µg/ml
[20]
  Activité pharmacologique antimicrobienne (concentrations): 1 µg/ml
[20]; Salmonella enterica, 20 h, read-out: Activité pharmacologique antimicrobienne (concentrations)
  MIC: 0.5 µg/mL
